How the values were obtained:
rat mast cells = assay: Rat Mast Cell (RMC) histamine release from passively sensitized rat mast cells; type: cell-based; settings: passively sensitized in vitro with anti-ovalbumin serum, antigen-induced histamine release, 0.1% DMSO, read-out: RMC I50
Text: The compounds of the present invention are useful as intermediates for making benzo-bis-oxazoles. Further, the compounds of the present invention are useful as antiallergic agents as evidenced by their activity as blockers of histamine release from passively sensitized rat mast cells (RMC) and in the rat passive cutaneous test (PCA). A brief description of the test methods follow.
Rat Mast Cell (RMC) Studies--(Based on E. Kusner, B. Dabnick, D. F. Herzig, J. Pharm. Exp., Ther., 1973, 184, 41.) Rat mast cells were passively sensitized in vitro with anti-ovalbumin serum. Following a 15 minute incubation, the spontaneous histamine release (SR) in the absence of antigent and AIR (in the presence of antigen) were measured fluorometrically with a Technicon Auto Analyzer®.

[1] = system: rat passive cutaneous anaphylaxis (blued wheal area); assay: Passive cutaneous anaphylaxis in the rat (PCA); type: in vivo, rat (male, Sprague Dawley); settings: 125 mg/kg p.o.; antigen challenge ten minutes after oral administration
Text: Passive Cutaneous Anaphalixis in the Rat (Based on I. Mota, Life Science, 1963, F 465; and Z. Ovary and O. G. Bier, Proc. Soc. Exp. Biol. and Med., 1952, 81, 584)--Male, Sprague Dawley rats were sensitized at dorsal sites by intradermal injection of syngeneic serum containing IgE anti-ovalbumin.Forty-eight hours later, groups of four rats were given either vehicle (1% methylcellulose) or graded does of compound. Either ten minutes after oral drug administration or five minutes after i.p. drug dosing, rats were challenged intravenously with antigen (ovalbumin) in 1% Evans blue dye. Thirty minutes after antigen challenge, the rats were sacrificed by cervical dislocations, the dorsal skins were reflected and blued wheal areas measured. Mean values±S.D. for wheal areas in control and drug-treated groups were detemined and compared statistically using Student's t-test.

O=c1[nH]c2cc3[nH]c(=O)c(=O)oc3cc2oc1=O [Example 1F, Benzo[1,2-b;5,4-b]-bis-[1,4]oxazine-2,3,7,8-tetrone] was tested, and the IC50 (rat mast cells) was 3000 nM and the “PCA % Inhibition” value [1] was 26%.
For O=c1[nH]c2cc3oc(=O)c(=O)[nH]c3cc2oc1=O [Example 2E, Benzo(1,2-b;4,5-b)-bis-[1,4]oxazine-2,3,7,8-tetrone], the IC50 (rat mast cells) was 1200 nM and the “PCA % Inhibition” value [1] was 42%.
